From patent publication US8377974B2 (Millennium Pharmaceuticals, Inc., priority 2004, dated 2013)

Target: T1, human plasma protein factor Xa (Homo sapiens, UniProt P00742)
T1 construct: measure proteolytic activity of the enzyme (factor Xa); purchased Haematologic Technologies (Essex Junction, Vt.); host or cells: human plasma
Test: Factor Xa IC50 determination: cleavage of paranitroanilide substrate S-2765 in 96-well plates
Type: biochemical
Details: fXa 1 nM, S-2765 100 μM, Tris buffered saline pH 7.4, room temperature
Outline: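 Initial rates of S-2765 (100 μM final) cleavage, read at 405 nm for 2 min, fitted with a four-parameter equation to give IC50. Enzyme: 1 nM human plasma fXa, 5 min room-temperature preincubation with inhibitor (0.01 nM–10 μM) in 20 mM Tris, 150 mM NaCl, 5 mM CaCl2, 0.1% BSA, 5% DMSO, pH 7.4; duplicates.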

T1 sequence (P00742 235-488 limits assumed): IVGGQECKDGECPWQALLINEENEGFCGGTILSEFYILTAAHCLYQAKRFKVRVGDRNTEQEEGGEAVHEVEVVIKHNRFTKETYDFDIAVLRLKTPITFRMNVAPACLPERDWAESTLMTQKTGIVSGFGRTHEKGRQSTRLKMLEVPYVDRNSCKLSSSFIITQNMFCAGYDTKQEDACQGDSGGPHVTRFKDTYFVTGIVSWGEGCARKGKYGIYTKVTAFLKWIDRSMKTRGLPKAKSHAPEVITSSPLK
T1 sequence (P00742 41-179 partner limits assumed): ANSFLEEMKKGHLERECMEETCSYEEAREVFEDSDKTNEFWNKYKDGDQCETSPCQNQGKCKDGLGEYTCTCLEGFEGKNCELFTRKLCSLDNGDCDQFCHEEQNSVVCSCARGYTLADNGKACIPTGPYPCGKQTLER

IC50 | SMILES
≤ 0.1 µM | CN1CCN=C1c1ccc(-c2cccc(CNC(=O)c3ccc(Cl)s3)c2)cc1 [Example 381, 5-Chloro-N-((3-(4-(1-methyl-4,5-dihydro-1H-imidazol-2-yl)phenyl)phenyl)methyl)thiophene-2-carboxamide]
≤ 0.1 µM | O=C(NCc1cc(-c2ccc(Nc3ccncc3)cc2)no1)c1ccc(Cl)s1 [Example 254, 5-Chloro-thiophene-2-carboxylic acid {3-[4-(pyridin-4-ylamino)-phenyl]-isoxazol-5-ylmethyl}-amide]
≥ 0.5 µM | O=C(O)c1ccc(-c2cc(CNC(=O)c3ccc(Cl)s3)on2)cc1 [Example 159, 4-(5-{[(5-Chloro-thiophene-2-carbonyl)-amino]-methyl}-isoxazol-3-yl)-benzoic acid]
≥ 0.5 µM | CN(C)CCN(C)C(=N)c1ccc(-c2cc(CN(C)C(=O)c3ccc(Cl)s3)on2)cc1 [Example 44, 5-Chloro-thiophene-2-carboxylic acid (3-{4-[N-(2-dimethylamino-ethyl)-N-methyl-carbamimidoyl]-phenyl}-isoxazol-5-ylmethyl)-methyl-amide]
≤ 0.1 µM | CN(C)CCN(C)C(=N)c1ccc(C2=NOC(CNC(=O)c3ccc(Cl)s3)C2)cc1 (stereo not drawn) [Example 16, 5-Chloro-thiophene-2-carboxylic acid (3-{4-[N-(2-dimethylamino-ethyl)-N-methyl-carbamimidoyl]-phenyl}-4,5-dihydro-isoxazol-5-ylmethyl)-amide]
≤ 0.1 µM | CN(C)C(=N)c1ccc(C2=NOC(CNC(=O)c3ccc(Cl)s3)C2)c(OC2CCCC2)c1 (stereo not drawn) [Example 112, 5-Chloro-thiophene-2-carboxylic acid {3-[2-cyclopentyloxy-4-(N,N-dimethyl-carbamimidoyl)-phenyl]-4,5-dihydro-isoxazol-5-ylmethyl}-amide]
≤ 0.1 µM | CN(C)C(=N)c1ccc(C2=NOC(CNC(=O)c3ccc(Cl)s3)C2)cc1 (stereo not drawn) [Example 8, 5-Chloro-thiophene-2-carboxylic acid {3-[4-(N,N-dimethyl-carbamimidoyl)-phenyl]-4,5-dihydro-isoxazol-5-ylmethyl}-amide]
0.1 to 0.5 µM | CCN(C)C(=N)c1ccc(-c2nc(CNC(=O)c3ccc(Cl)s3)co2)cc1 [Example 343, N-((2-(4-(N-Ethyl-N-methylcarbamimidoyl)phenyl)oxazol-4-yl)methyl)-5-chlorothiophene-2-carboxamide]
≤ 0.1 µM | CN1CCN=C1c1ccc(-c2cc(CNC(=O)c3ccc(Cl)s3)on2)c(N(C)C)c1 [Example 95, 5-Chloro-thiophene-2-carboxylic acid {3-[2-dimethylamino-4-(1-methyl-4,5-dihydro-1H-imidazol-2-yl)-phenyl]-isoxazol-5-ylmethyl}-amide]
≥ 0.5 µM | CN(C)C(=N)c1ccc(-c2cc(CN(C)C(=O)c3ccc(Cl)s3)on2)cc1 [Example 35, 5-Chloro-thiophene-2-carboxylic acid {3-[4-(N,N-dimethyl-carbamimidoyl)-phenyl]-isoxazol-5-ylmethyl}-methyl-amide]
≤ 0.1 µM | C[C@@H](NC(=O)c1ccc(Cl)s1)c1cc(-c2ccc(C(=N)N(C)C)cc2)no1 [Example 49, (R)-5-Chloro-thiophene-2-carboxylic acid (1-{3-[4-(N,N-dimethyl-carbamimidoyl)-phenyl]-isoxazol-5-yl}-ethyl)-amide]
≤ 0.1 µM | CN(C)C(=N)c1ccc(-n2cc(CNC(=O)c3ccc(Cl)s3)nn2)c(F)c1 [Example 320, N-((1-(4-(N,N-Dimethylcarbamimidoyl)-2-fluorophenyl)-1H-1,2,3-triazol-4-yl)methyl)-5-chlorothiophene-2-carboxamide]
≤ 0.1 µM | CN(C)C(=N)c1ccc(-c2cc(CNC(=O)c3ccc(Cl)s3)no2)cc1 [Example 330, N-((5-(4-(N,N-Dimethylcarbamimidoyl)phenyl)isoxazol-3-yl)methyl)-5-chlorothiophene-2-carboxamide]
≤ 0.1 µM | O=C(NCc1cc(-c2ccc(C(N3CCC3)=[N+]3CCC3)cc2)no1)c1ccc(Cl)s1 [Example 27, 5-Chloro-thiophene-2-carboxylic acid {3-[4-(azetidin-1-yl-azetidin-1-ylidene-methyl)-phenyl]-isoxazol-5-ylmethyl}-amide]
≤ 0.1 µM | COc1ccc(CN2CCCC2)c(-c2ccc(-c3cc(CNC(=O)c4ccc(Cl)s4)on3)cc2)c1 [Example 216, 5-Chloro-thiophene-2-carboxylic acid [3-(5′-methoxy-2′-pyrrolidin-1-ylmethyl-biphenyl-4-yl)-isoxazol-5-ylmethyl]-amide]
≥ 0.5 µM | CSc1cc(C(=N)N2CCCCC2)ccc1-c1cc(CNC(=O)c2ccc(Cl)s2)on1 [Example 143, 5-Chloro-thiophene-2-carboxylic acid {3-[4-(imino-piperidin-1-yl-methyl)-2-methylsulfanyl-phenyl]-isoxazol-5-ylmethyl}-amide]
≤ 0.1 µM | CCOc1cc(C2=NCCN2C)ccc1C1=NOC(CNC(=O)c2ccc(Cl)s2)C1 (stereo not drawn) [Example 107, 5-Chloro-thiophene-2-carboxylic acid {3-[2-ethoxy-4-(1-methyl-4,5-dihydro-1H-imidazol-2-yl)-phenyl]-4,5-dihydro-isoxazol-5-ylmethyl}-amide]
0.1 to 0.5 µM | CN(C)C(=N)c1ccc(C2=NOC(CNC(=O)c3ccc(Cl)s3)C2)c(N(C)C)c1 (stereo not drawn) [Example 74, 5-Chloro-thiophene-2-carboxylic acid {3-[2-dimethylamino-4-(N,N-dimethyl-carbamimidoyl)-phenyl]-4,5-dihydro-isoxazol-5-ylmethyl}-amide]
≤ 0.1 µM | COc1cc(C(=N)N(C)C)ccc1C1=NOC(CNC(=O)c2ccc(Cl)s2)C1 (stereo not drawn) [Example 102, 5-Chloro-thiophene-2-carboxylic acid {3-[4-(N,N-dimethyl-carbamimidoyl)-2-methoxy-phenyl]-4,5-dihydro-isoxazol-5-ylmethyl}-amide]

Further lines, the compound ahead of its results:

SMILES | IC50
O=C(NCc1cn(-c2ccc(N3CCSCC3=O)cc2)nn1)c1ccc(Cl)s1 [Example 302, 5-Chloro-N-((1-(4-(3-oxothiomorpholino)phenyl)-1H-1,2,3-triazol-4-yl)methyl)thiophene-2-carboxamide] | ≤ 0.1 µM
N=C(c1ccc(-c2cncc(CNC(=O)c3ccc(Cl)s3)c2)cc1)N1CCCC1 [Example 372, 5-Chloro-N-((5-(4-(imino(pyrrolidin-1-yl)methyl)phenyl)pyridin-3-yl)methyl)thiophene-2-carboxamide] | ≤ 0.1 µM
O=C(NCc1cn(-c2ccc(-n3ccccc3=O)cn2)nn1)c1ccc(Cl)s1 [Example 309, 5-Chloro-N-((1-(5-(2-oxopyridin-1(2H)-yl)pyridin-2-yl)-1H-1,2,3-triazol-4-yl)methyl)thiophene-2-carboxamide] | ≤ 0.1 µM
N=C(c1ccc(-n2cc(CNC(=O)c3ccc(Cl)s3)nn2)cc1)N1CCCC1 [Example 318, 5-Chloro-N-((1-(4-(imino(pyrrolidin-1-yl)methyl)phenyl)-1H-1,2,3-triazol-4-yl)methyl)thiophene-2-carboxamide] | ≤ 0.1 µM
Nc1ccc(C2=NOC(CNC(=O)c3ccc(Cl)s3)C2)cc1 (stereo not drawn) [Example 160, 5-Chloro-thiophene-2-carboxylic acid [3-(4-amino-phenyl)-4,5-dihydro-isoxazol-5-ylmethyl]-amide] | ≥ 0.5 µM
O=C(NCC1CC(c2ccc(N3CCCCC3=O)cc2)=NO1)c1ccc(Cl)s1 (stereo not drawn) [Example 241, 5-Chloro-thiophene-2-carboxylic acid {3-[4-(2-oxo-piperidin-1-yl)-phenyl]-4,5-dihydro-isoxazol-5-ylmethyl}-amide] | 0.1 to 0.5 µM
N=C(c1ccc(-n2cnc(CNC(=O)c3ccc(Cl)s3)c2)cc1)N1CCCC1 [Example 367, 5-Chloro-N-((1-(4-(imino(pyrrolidin-1-yl)methyl)phenyl)-1H-imidazol-4-yl)methyl)thiophene-2-carboxamide] | ≤ 0.1 µM
N=C(c1ccc(C2=NOC(CNC(=O)c3ccc(Cl)s3)C2)cc1)N1CCCCC1 (stereo not drawn) [Example 11, 5-Chloro-thiophene-2-carboxylic acid {3-[4-(imino-piperidin-1-yl-methyl)-phenyl]-4,5-dihydro-isoxazol-5-ylmethyl}-amide] | 0.1 to 0.5 µM
COc1ccccc1-c1ccc(C2=NOC(CNC(=O)c3ccc(Cl)s3)C2)cc1 (stereo not drawn) [Example 188, 5-Chloro-thiophene-2-carboxylic acid [3-(2′-methoxy-biphenyl-4-yl)-4,5-dihydro-isoxazol-5-ylmethyl]-amide] | 0.1 to 0.5 µM
CN1CCCN(c2ccc(-n3cc(CNC(=O)c4ccc(Cl)s4)nn3)cn2)CC1 [Example 383, 5-Chloro-N-((1-(6-(4-methyl-1,4-diazepan-1-yl)pyridin-3-yl)-1H-1,2,3-triazol-4-yl)methyl)thiophene-2-carboxamide] | ≤ 0.1 µM
O=C(NCC1CC(c2ccc(Nc3c(Cl)cncc3Cl)cc2)=NO1)c1ccc(Cl)s1 (stereo not drawn) [Example 402, 5-Chloro-N-((3-(4-(3,5-dichloropyridin-4-ylamino)phenyl)-4,5-dihydroisoxazol-5-yl)methyl)thiophene-2-carboxamide] | ≥ 0.5 µM
CCn1nccc1Nc1ccc(C2=NOC(CNC(=O)c3ccc(Cl)s3)C2)cc1 (stereo not drawn) [Example 232, 5-Chloro-thiophene-2-carboxylic acid {3-[4-(2-ethyl-2H-pyrazol-3-ylamino)-phenyl]-4,5-dihydro-isoxazol-5-ylmethyl}-amide] | ≥ 0.5 µM
O=C(NCC1CC(c2ccc(N3CCOCCC3=O)cc2)=NO1)c1ccc(Cl)s1 (stereo not drawn) [Example 246, 5-Chloro-thiophene-2-carboxylic acid {3-[4-(5-oxo-[1,4]oxazepan-4-yl)-phenyl]-4,5-dihydro-isoxazol-5-ylmethyl}-amide] | ≤ 0.1 µM
O=C(NCc1cn(-c2ccc(-n3ccccc3=O)cc2O)nn1)c1ccc(Cl)s1 [Example 307, 5-Chloro-N-((1-(2-hydroxy-4-(2-oxopyridin-1(2H)-yl)phenyl)-1H-1,2,3-triazol-4-yl)methyl)thiophene-2-carboxamide] | ≤ 0.1 µM
